Laboratory results as given in patent US20140242093A1, “METHODS AND COMPOSITIONS FOR MODULATING THE INNATE IMMUNE RESPONSE AND/OR MYOGENESIS IN A MAMMALIAN SUBJECT” (FRED HUTCHINSON CANCER RESEARCH CENTER, priority 2011, published 2014).

What was measured:
[1] = test system: 31-bp oligonucleotides containing the putative DUX4 binding site; assay: Electromobility shift assay (EMSA); set-up: species or system human; conditions: in vitro translated protein; TRIM48, CSF1R, THE1D oligos
Procedure: EMSA was performed with ^32P-labeled 31-bp oligonucleotides from endogenous genomic sequences containing the putative DUX4 binding site as probes (sequences below; only forward shown). Radiolabeled probes were incubated with in vitro translated protein generated from pCS2-DUX4-fl or pCS2-DUX4-s^2 vectors using the TNT SP6 Coupled Wheat Germ Extract System (Promega) according to manufacturer's instructions. To obtain supershift of protein-DNA complexes, 0.1 μg of E14-3 anti-DUX4 rabbit monoclonal antibody was added to the mixtures. For competition experiments, excess unlabeled probes of either wild-type or mutant sequences were included in the binding reaction. The gels were prepared and run as previously described (Knoepfler et al., 1999).

[2] = test system: Cultured human muscle cells (54-1); assay: Conditioned media from lenti-DUX4-fl cells on lenti-GFP transduced cells, RT-PCR of IFIH1 and DEFB103A/B; assay type: cell-based
Procedure: It was determined that DEFB103A (SEQ ID NO:49) and DEFB103B (SEQ ID NO:107), each encoding the polypeptide DEFB103A/B set forth as SEQ ID NO:178, are both activated by lenti-DUX4-fl and not by lenti-DUX4-s or lenti-GFP. These represent transcripts from a duplicated beta-defensin 3 gene, which can function as a suppressor of inflammation. As a secreted protein, DEFB103A/B (SEQ ID NO:178) has the potential to suppress the innate immune response in cells infected with lenti-GFP. As an initial step toward testing this, the inventors transduced cells with lenti-DUX4-fl or nothing for 12 hrs, washed extensively and replaced the culture media, then after an additional 12 hrs transferred the conditioned media to cells infected 24 hrs earlier with lenti-GFP.
Cultured human muscle cells (54-1) were transduced with nothing (first lane panels A and B), lenti-DUX4-fl @ approximately MOI=10 (lane 2), lenti-DUX4-fl MOI ˜1 (lane 3), lenti-GFP MOI ˜10 (lane 4), lenti-GFP transduced cells exposed to conditioned media from lane 2 cells (lane 5), lenti-GFP transduced cells exposed to conditioned media from lane 3 cells (lane 6), lenti-GFP transduced cells exposed to media from lane 5 cells that was filtered through a 35 kD cut-off filter. The conditioned media from the lenti-DUX4 transduced cells suppresses the IFIH1 induction by lenti-GFP (Panel A).

DUX4-fl: full-length DUX4 protein (SEQ ID NO:110), expressed from lentiviral or pCS2 vectors or in vitro translated
binding to DUX4 core motifs [1]: binds the core motifs present in both MaLR-associated and non-repeat associated sites
expression of DEFB103A/B ([2]; RT-PCR): induces expression of DEFB103A/B
activation of IFIH1 by the construct ([2]; qRT-PCR, no conditioned medium): did not
